Drawing on patent US8148391B2 (Cephalon, Inc., priority 2006, dated 2012), this text covers IC50 for ten molecules.

The structures appear in SMILES notation.

The target of assay [1] is T1, baculovirus-expressed ALK (Homo sapiens, UniProt Q9UM73).
T1 construct: host or cells: baculovirus expression system
Kind of assay: ALK Kinase Assay (ELISA-type, time-resolved fluorescence). The class given is biochemical. Particulars: ALK kinase inhibition, 1 μM ATP (Km level); read-out: ALK Activity. In a few lines: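 Wells were coated with phospholipase C-γ at 10 μg/mL in Tris-buffered saline. Adding 30 ng/ml enzyme started the reaction, which ran at 37° C for 15 minutes before Eu-N1 PT66 antibody detection. Percent inhibition versus log10 concentration gave IC50 by variable-slope fit.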
For orientation: An ELISA detects its analyte on a solid surface through an enzyme-linked reagent.

The target in assay [2] is T2, c-Met (cytoplasmic domain) (Homo sapiens, UniProt P08581).
T2 construct: 10 ng/mL c-Met (cytoplasmic domain, Invitrogen Corporation #PV3143); purchased Invitrogen Corporation PV3143
T2 sequence (P08581 956-1390 limits assumed): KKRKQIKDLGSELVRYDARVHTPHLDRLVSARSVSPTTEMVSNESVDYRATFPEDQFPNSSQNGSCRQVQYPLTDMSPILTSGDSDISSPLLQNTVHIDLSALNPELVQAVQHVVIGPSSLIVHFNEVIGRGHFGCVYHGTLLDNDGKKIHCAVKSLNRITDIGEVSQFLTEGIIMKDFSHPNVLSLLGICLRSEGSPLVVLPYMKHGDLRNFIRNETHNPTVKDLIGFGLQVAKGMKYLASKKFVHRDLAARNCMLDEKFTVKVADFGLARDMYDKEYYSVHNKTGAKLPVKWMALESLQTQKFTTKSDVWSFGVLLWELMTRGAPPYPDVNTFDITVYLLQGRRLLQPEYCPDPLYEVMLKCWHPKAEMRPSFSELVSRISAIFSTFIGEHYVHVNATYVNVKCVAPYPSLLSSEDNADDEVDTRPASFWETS
The assay is described as follows: c-Met Kinase Assay (same methods as for ALK, with modifications). The class given is biochemical. To be noted: c-Met kinase inhibition, 1 μM ATP (Km level); read-out: cMet Activity. In a few lines:
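Steps: coat wells with PLC-γ (10 μg/mL, Tris-buffered saline); add 10 ng/mL c-Met cytoplasmic domain to initiate; incubate 15 min, 37° C; detect phosphoproduct via Eu-N1 PT66 antibody.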

T1 sequence (Q9UM73 19-1620): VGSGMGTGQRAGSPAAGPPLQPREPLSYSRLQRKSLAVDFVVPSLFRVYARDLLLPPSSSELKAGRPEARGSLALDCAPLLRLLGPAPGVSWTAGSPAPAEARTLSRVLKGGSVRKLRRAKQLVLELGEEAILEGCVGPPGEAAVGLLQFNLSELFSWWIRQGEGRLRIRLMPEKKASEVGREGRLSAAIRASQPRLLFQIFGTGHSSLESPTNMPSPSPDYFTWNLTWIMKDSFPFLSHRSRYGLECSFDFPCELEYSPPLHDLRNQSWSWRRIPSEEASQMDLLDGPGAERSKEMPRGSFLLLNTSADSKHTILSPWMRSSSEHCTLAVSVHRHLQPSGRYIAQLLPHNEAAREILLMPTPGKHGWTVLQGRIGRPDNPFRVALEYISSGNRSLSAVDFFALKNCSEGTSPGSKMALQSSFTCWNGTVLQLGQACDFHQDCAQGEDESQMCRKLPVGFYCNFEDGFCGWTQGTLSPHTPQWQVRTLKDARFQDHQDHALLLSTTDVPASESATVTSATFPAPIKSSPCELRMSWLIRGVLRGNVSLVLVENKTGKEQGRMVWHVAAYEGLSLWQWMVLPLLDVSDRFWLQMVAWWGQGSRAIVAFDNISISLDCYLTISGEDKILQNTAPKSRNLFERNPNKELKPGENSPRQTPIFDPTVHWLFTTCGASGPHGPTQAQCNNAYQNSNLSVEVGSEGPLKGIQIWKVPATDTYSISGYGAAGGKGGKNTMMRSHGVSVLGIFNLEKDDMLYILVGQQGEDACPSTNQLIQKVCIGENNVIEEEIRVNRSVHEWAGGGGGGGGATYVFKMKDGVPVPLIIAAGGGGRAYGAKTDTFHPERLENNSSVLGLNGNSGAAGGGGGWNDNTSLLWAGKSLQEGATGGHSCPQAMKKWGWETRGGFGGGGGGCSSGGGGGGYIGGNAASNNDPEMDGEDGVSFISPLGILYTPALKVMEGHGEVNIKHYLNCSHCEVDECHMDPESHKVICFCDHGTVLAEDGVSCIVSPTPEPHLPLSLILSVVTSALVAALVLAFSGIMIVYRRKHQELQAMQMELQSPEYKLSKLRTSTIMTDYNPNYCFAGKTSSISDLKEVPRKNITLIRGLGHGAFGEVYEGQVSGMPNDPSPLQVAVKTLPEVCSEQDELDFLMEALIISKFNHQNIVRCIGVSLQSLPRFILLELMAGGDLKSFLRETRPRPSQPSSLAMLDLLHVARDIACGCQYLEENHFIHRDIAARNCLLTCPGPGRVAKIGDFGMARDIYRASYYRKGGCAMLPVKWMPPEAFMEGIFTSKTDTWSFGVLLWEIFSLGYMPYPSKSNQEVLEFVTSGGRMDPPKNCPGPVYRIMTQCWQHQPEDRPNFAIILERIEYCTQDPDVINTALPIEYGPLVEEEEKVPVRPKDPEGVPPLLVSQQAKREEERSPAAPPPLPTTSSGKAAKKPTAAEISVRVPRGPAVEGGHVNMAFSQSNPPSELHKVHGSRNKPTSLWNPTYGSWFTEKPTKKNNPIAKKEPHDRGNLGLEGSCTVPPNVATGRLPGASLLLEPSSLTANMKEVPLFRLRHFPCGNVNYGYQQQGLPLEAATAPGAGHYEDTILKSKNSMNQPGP

`CC(C)N1CC2CCC(C1)c1cc(Nc3ncc(Cl)c(N[C@@H]4CCCC[C@H]4NS(C)(=O)=O)n3)ccc12` (stereo partly drawn) [Example 296, N-{(1R,2R)-2-[5-Chloro-2-(10-Isopropyl-10-aza-tricyclo[6.3.2.0*2,7*]trideca-2,4,6-trien-4-ylamino)-pyrimidin-4-ylamino]-cyclohexyl}-methanesulfonamide]: the IC50 is less than 100 nM in assay [1] and 100 to 1000 nM in assay [2].
For the molecule `CNC(=O)c1ccccc1Nc1nc(Nc2ccc3c(c2Br)C2CCC3CN(C(=O)C(F)(F)F)C2)ncc1Cl` (centres unmarked) [Example 297, 2-{2-[3-Bromo-10-(2,2,2-trifluoro-acetyl)-10-aza-tricyclo[6.3.2.0*2,7*]trideca-2,4,6-trien-4-ylamino]-5-chloro-pyrimidin-4-ylamino}-N-methyl-benzamide], the IC50 in assay [1] is 100 to 1000 nM; in assay [2] it was more than 10000 nM.
For `CCN1CCc2ccc(Nc3ncc(Cl)c(NCCNS(C)(=O)=O)n3)cc2CC1` [Example 298, N-{2-[5-Chloro-2-(3-ethyl-2,3,4,5-tetrahydro-1H-benzo[d]azepin-7-ylamino)-pyrimidin-4-ylamino]-ethyl}-methanesulfonamide] the same measures were 100 to 1000 nM and 1000 to 10000 nM.
Turning to `COCCN1CCc2ccc(Nc3ncc(Cl)c(NCCNS(C)(=O)=O)n3)cc2CC1` [Example 299, N-(2-{5-Chloro-2-[3-(2-methoxy-ethyl)-2,3,4,5-tetrahydro-1H-benzo[d]azepin-7-ylamino]-pyrimidin-4-ylamino}-ethyl)-methanesulfonamide], the IC50 in assay [1] was 100 to 1000 nM; in assay [2], 1000 to 10000 nM.
The matching figures for `CCN1CCc2ccc(Nc3ncc(Cl)c(NCC(C)NS(C)(=O)=O)n3)cc2CC1` (centres unmarked) [Example 300, N-{2-[5-Chloro-2-(3-ethyl-2,3,4,5-tetrahydro-1H-benzo[d]azepin-7-ylamino)-pyrimidin-4-ylamino]-1-methyl-ethyl}-methanesulfonamide]: 100 to 1000 nM and 1000 to 10000 nM.
Take `COCCN1CCc2ccc(Nc3ncc(Cl)c(NCC(C)NS(C)(=O)=O)n3)cc2CC1` (centres unmarked) [Example 301, N-(2-{5-Chloro-2-[3-(2-methoxy-ethyl)-2,3,4,5-tetrahydro-1H-benzo[d]azepin-7-ylamino]-pyrimidin-4-ylamino}-1-methyl-ethyl)-methanesulfonamide]: the IC50 in assay [1] lay within 100 to 1000 nM; in assay [2], 1000 to 10000 nM.
The matching figures for `CCN1CCc2ccc(Nc3ncc(Cl)c(NC(C)CNS(C)(=O)=O)n3)cc2CC1` (centres unmarked) [Example 302, N-{2-[5-Chloro-2-(3-ethyl-2,3,4,5-tetrahydro-1H-benzo[d]azepin-7-ylamino)-pyrimidin-4-ylamino]-propyl}-methanesulfonamide]: less than 100 nM and 1000 to 10000 nM.
In the case of `COCCN1CCc2ccc(Nc3ncc(Cl)c(NC(C)CNS(C)(=O)=O)n3)cc2CC1` (centres unmarked) [Example 303, N-(2-{5-Chloro-2-[3-(2-methoxy-ethyl)-2,3,4,5-tetrahydro-1H-benzo[d]azepin-7-ylamino]-pyrimidin-4-ylamino}-propyl)-methanesulfonamide], the IC50 in assay [1] lay in the range of 100 to 1000 nM; in assay [2], 1000 to 10000 nM.
As to `CCN1CCc2ccc(Nc3ncc(Cl)c(NCC(C)(C)NS(C)(=O)=O)n3)cc2CC1` [Example 304, N-{2-[5-Chloro-2-(3-ethyl-2,3,4,5-tetrahydro-1H-benzo[d]azepin-7-ylamino)-pyrimidin-4-ylamino]-1,1-dimethyl-ethyl}-methanesulfonamide], the IC50 lay in the range of 100 to 1000 nM in assay [1] and 1000 to 10000 nM in assay [2].
For `COCCN1CCc2ccc(Nc3ncc(Cl)c(NCC(C)(C)NS(C)(=O)=O)n3)cc2CC1` [Example 305, N-(2-{5-Chloro-2-[3-(2-methoxy-ethyl)-2,3,4,5-tetrahydro-1H-benzo[d]azepin-7-ylamino]-pyrimidin-4-ylamino}-1,1-dimethyl-ethyl)-methanesulfonamide], the IC50 is 100 to 1000 nM in assay [1] and more than 10000 nM in assay [2].
